Reference: patent US20250090658A1, “POLYMER ADJUVANT” (Oxford University Innovation Limited, priority 2014, published 2025)
“Also recorded” adds a separate entry of the source.

What was measured:
[1] = Body weight change after subcutaneous adjuvant administration; type: in vivo, C57/BL6 mice
Experimental: FIG. 10: Persistent local innate immune by particulate Poly-7/8a (PP-7/8a) activation is necessary and sufficient for inducing protective CD8 T cell responses. (a-c) CpG (20 μg), R848 (62.5 nmol) or PP-7/8a^Hi (62.5 nmol) were delivered subcutaneously into both hind footpads of C57/BL6 mice. (a) Supernatant of ex vivo cultured lymph node cell suspensions (n=4) were evaluated for IL-12p40 by ELISA at serial timepoints. (b) Serum (n=3-5) was assessed for IL-12p40 by ELISA at serial timepoints. (c) Percent body weight change (n=3) following subcutaneous administration of different vaccine adjuvants. (d) A model for understanding the relationship between biodistribution and local and systemic innate immune activation. (e, f) C57/BL6 mice (n=6) received a single subcutaneous footpad injection of 50 μg of OVA formulated with adjuvant at days 0 and 14. (e) At day 25, tetramer^+ CD8 T cell responses from whole blood were evaluated by flow cytometry. (f) Mice (n=6) were challenged intravenously at day 28 with LM-OVA and bacterial burden in the spleens was evaluated on day 31. (g, h) Immunogenicity experiments were repeated using SIV Gag p41 in place of OVA.

serum IL-12p40 and IP-10 = assay: Serum (systemic) cytokines after subcutaneous administration (ELISA); type: in vivo, C57/BL6 mice
Source text: FIG. 9: Morphology of the carrier and TLR-7/8a agonist density, dose and potency independently influence the magnitude and spatiotemporal characteristics of innate immune activation. (a-g) To facilitate in vivo tracking, dye-labeled Poly-7/8a (PP-7/8a^Hi, PP-7/8a^Lo, PC-7/8a^Lo) (Note PP-7/8a^Hi=10 mol % and PP-7/8a^Lo=3 mol %) and small molecule TLR-7/8a normalized for TLR-7/8a dose (12.5 nmol), and controls, were delivered subcutaneously to the left footpad of mice. […] (c-e) Draining lymph nodes (n=3) were harvested at serial timepoints and evaluated by flow cytometry. […] Total CD11c^+ DC were evaluated for (d) adjuvant uptake (% Ax488^+), (e,f) relative adjuvant uptake per cell (Ax488 MFI; note that PP-7/8a^Lo and PC-7/8a^Lo are matched for TLR-7/8a density and dose), (g) magnitude and (h) activation (CD80 co-stimulatory molecule expression). (i) IL-12p40 was measured from the supernatant of ex vivo lymph node cultures. […] At day 28, tetramer+CD8 T cell responses were evaluated from whole blood. […] (n) Total IgG antibody titers and the ratio of IgG1/IgG2c antibody endpoint titers were evaluated from sera on day 28.
FIG. 10: Persistent local innate immune by particulate Poly-7/8a (PP-7/8a) activation is necessary and sufficient for inducing protective CD8 T cell responses. […] (b) Serum (n=3-5) was assessed for IL-12p40 by ELISA at serial timepoints. […]

[2] = Biodistribution and kinetics of dye-labeled materials after subcutaneous administration (X-ray and epifluorescence imaging); type: in vivo, mice
Source text: (§1) FIG. 9: Morphology of the carrier and TLR-7/8a agonist density, dose and potency independently influence the magnitude and spatiotemporal characteristics of innate immune activation. (a-g) To facilitate in vivo tracking, dye-labeled Poly-7/8a (PP-7/8a^Hi, PP-7/8a^Lo, PC-7/8a^Lo) (Note PP-7/8a^Hi=10 mol % and PP-7/8a^Lo=3 mol %) and small molecule TLR-7/8a normalized for TLR-7/8a dose (12.5 nmol), and controls, were delivered subcutaneously to the left footpad of mice. (a, b) mice (n=3) that received IR-dye labeled materials were imaged by dual modality X-ray and epifluorescence spectroscopy; (a) Representative images illustrating biodistribution over the first 2 days; (b) Kinetics of the different constructs in the popliteal lymph node. (c-e) Draining lymph nodes (n=3) were harvested at serial timepoints and evaluated by flow cytometry. […] Total CD11c^+ DC were evaluated for (d) adjuvant uptake (% Ax488^+), (e,f) relative adjuvant uptake per cell (Ax488 MFI; note that PP-7/8a^Lo and PC-7/8a^Lo are matched for TLR-7/8a density and dose), (g) magnitude and (h) activation (CD80 co-stimulatory molecule expression). (i) IL-12p40 was measured from the supernatant of ex vivo lymph node cultures. […] At day 28, tetramer+CD8 T cell responses were evaluated from whole blood. […] (n) Total IgG antibody titers and the ratio of IgG1/IgG2c antibody endpoint titers were evaluated from sera on day 28.

CD11c+ DC = assay: DC recruitment and activation (CD80) in draining lymph nodes; type: in vivo, mice; settings: TLR-7/8a dose 12.5 nmol, subcutaneous
Source text: as §1

Th1 CD4 T cells = assay: MML immunization, antigen-specific Th1 cytokine producing CD4 T cells in splenocytes; type: in vivo, C57/BL6 mice; settings: 20 μg MML, days 0, 21 and 42
Experimental: FIG. 11: Particulate Poly-7/8a induce Th1 CD4 T cells that mediate protection against Leishmania major. C57/BL6 mice received subcutaneous immunizations of 20 μg of MML protein either alone, or formulated with an adjuvant, on days 0, 21 and 42. (a) Splenocytes were isolated on day 70 and stimulated in vitro with MML peptide pool. Antigen-specific cytokine producing CD4 T cells in the mixed splenocyte cultures were quantified by flow cytometry (n=5) for their capacity to produce Th1 characteristic cytokines (IFNγ, IL-2 and TNFα). (b) Mice (n=6) were challenged intradermally in both ears with L major at day 70. Ear lesion diameters were measured for 12 weeks.

hTLR7 = molecular target: T1, hTLR7 (Homo sapiens, UniProt Q9NYK1); assay: HEK293 hTLR7 reporter cell assay (absorbance at 405 nm); type: cell-based; settings: HEK293 hTLR7 reporter cells
T1 construct: expressed in transfected cells; host or cells: HEK293
T1 sequence (Q9NYK1 27-1049): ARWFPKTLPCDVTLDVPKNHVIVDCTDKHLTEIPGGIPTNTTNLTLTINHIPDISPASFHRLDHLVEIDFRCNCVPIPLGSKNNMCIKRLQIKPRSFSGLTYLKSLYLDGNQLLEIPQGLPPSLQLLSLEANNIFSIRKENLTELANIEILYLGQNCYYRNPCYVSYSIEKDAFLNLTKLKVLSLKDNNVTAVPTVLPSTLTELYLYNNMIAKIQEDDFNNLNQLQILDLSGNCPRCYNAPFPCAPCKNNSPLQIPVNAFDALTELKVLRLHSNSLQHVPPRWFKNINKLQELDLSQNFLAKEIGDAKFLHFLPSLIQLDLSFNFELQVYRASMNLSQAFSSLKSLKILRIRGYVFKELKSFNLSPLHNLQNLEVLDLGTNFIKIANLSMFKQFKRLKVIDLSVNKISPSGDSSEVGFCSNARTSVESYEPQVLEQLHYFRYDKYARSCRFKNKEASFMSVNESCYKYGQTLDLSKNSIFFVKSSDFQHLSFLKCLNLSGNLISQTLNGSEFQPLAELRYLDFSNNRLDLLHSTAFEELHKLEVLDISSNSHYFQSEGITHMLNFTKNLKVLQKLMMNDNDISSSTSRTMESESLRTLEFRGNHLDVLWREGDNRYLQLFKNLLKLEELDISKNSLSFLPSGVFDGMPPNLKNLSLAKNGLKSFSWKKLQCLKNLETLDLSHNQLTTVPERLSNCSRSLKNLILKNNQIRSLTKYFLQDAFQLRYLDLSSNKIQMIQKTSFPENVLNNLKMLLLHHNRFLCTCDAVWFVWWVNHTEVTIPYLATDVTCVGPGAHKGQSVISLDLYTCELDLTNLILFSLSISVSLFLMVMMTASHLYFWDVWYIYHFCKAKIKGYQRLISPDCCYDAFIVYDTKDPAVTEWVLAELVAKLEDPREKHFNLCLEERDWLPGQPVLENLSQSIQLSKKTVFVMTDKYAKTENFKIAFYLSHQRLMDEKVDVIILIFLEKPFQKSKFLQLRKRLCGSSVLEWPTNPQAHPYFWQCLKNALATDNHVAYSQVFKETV
Experimental: FIG. 6: Combinatorial synthesis was used to generate diverse arrays of Poly-7/8a. […] The potency of these two TLR-7/8a was evaluated in vitro using HEK293 hTLR7 reporter cells; absorbance at 405 nm is proportional to TLR7 binding. (b) A combinatorial library of Poly-7/8a was generated by attaching 2 unique TLR-7/8a (SM 7/8a or SM 20×7/8a) to reactive HPMA-based copolymers at different densities (˜2,4, 8 mol %) using either a short, alkane or PEG linker. By reacting 2 unique TLR-7/8a, at 3 different densities, using 3 different linkers, there are 18 unique products that can be generated, as illustrated (c). Note that this cartoon representation is for illustrative purposes; not all Poly-7/8a represented in this schematic were evaluated in this study, nor does this schematic represent all the materials described herein.

[3] = Particle formation and size in aqueous solution by (dynamic) light scattering; type: physicochemical; settings: 0.1 mg/mL PBS
Source text: FIG. 7: In vivo screening of a combinatorial library of Poly-7/8a yields structure-activity insights. (a) Lymph node (n=4) IL-12p40 induced by a combinatorial library of Poly-7/8a. (b) Influence of TLR-7/8a density on lymph node (n=6) IL-12p40 and IP-10 levels (left y-axis, line graphs) and particle size assessed by dynamic light scattering (right y-axis, bar graph). (c) Cryo-electron microscopy of selected samples is shown for illustrative purposes. […] SM=small molecule; PC=polymer coil; PP=polymer particle.
FIG. 8: Increasing density of agonists on polymers results in an increased tendency of Poly-7/8a to form particles in aqueous solutions and is associated with enhanced local innate immune activity. (b) Negative control polymers were generated using aminopyridine (AP) to account for the contribution of the aromatic amine present on the imidazoquinoline based TLR-7/8a used in this study. AP was attached to polymers either through a PEG or amphiphilic (AMPH) spacer. […] 24 h after administration, supernatant of overnight lymph node cell suspensions were assessed for IFNα (d) or IFNγ (e) by ELISA. (f-g) Lymph nodes were isolated from wild type (WT), TLR-7 knockout or Caspase 1/11 (inflammasome) knockout mice 24 h after subcutaneously administering Poly-7/8a^10%; culture supernatants were evaluated for IP-10 and IL-12 by ELISA.

In the case of `CCOCc1nc2c(N)nc3ccccc3c2n1CC(C)(C)O` [R848], the mouse body weight [1] is reported as “transient decreases in mouse body weight” and the “systemic (sera) cytokines” value (serum IL-12p40 and IP-10; CpG 20 μg, R848 62.5 nmol, PP-7/8a^Hi 62.5 nmol, subcutaneous) is reported as “only induced systemic (sera) cytokines; also recorded: high levels of transient systemic cytokine production”.
With `CCOCc1nc2c(N)nc3ccccc3c2n1CCCCN` [SM 7/8a, 1-(4-aminobutyl)-2-(ethoxymethyl)-1H-imidazo[4,5-c]quinolin-4-amine] the “time after which undetectable” value [2] was no more than 1 days, the biodistribution / retention ([2]; normalized for TLR-7/8a dose) was “distributed systemically” and the “DC recruitment, activation and cytokine production in draining lymph nodes” value (CD11c+ DC) was “limited lymph node responses”. For the same compound, the “Th1-type CD4 cell responses” value (Th1 CD4 T cells) was “equivalent to MML administered alone” and the serum cytokines (serum IL-12p40 and IP-10; TLR-7/8a dose 12.5 nmol, local (subcutaneous) administration) was “high levels of serum cytokines”.
For `CCCCc1nc2c(N)nc3ccccc3c2n1Cc1ccc(CN)cc1` [SM 20×7/8a, 1-(4-(aminomethyl)benzyl)-2-butyl-1H-imidazo[4,5-c]quinolin-4-amine], the “potency relative to SM 7/8a” value (hTLR7) was roughly 20 fold.
In the case of “p[(HPMA)-co-(Ma-β-Ala-PEG-Pam2Cys)] [Poly-PEG-Pam2Cys]”, the z-average diameter [3] is reported as 2,744±384.8 nm.
